Results from patent publication US4733003A, “Octahydronaphthalene derivatives and their preparation” (Sankyo Company Limited, priority 1981, dated 1988).

tested on: cholesterol biosynthesis; assay: inhibition of cholesterol biosynthesis (method of J. Biol. Chem. 234, 2835 (1959)); assay type: biochemical; conditions: method of Journal of Biological Chemistry, 234, 2835 (1959)
Text: The compounds of the invention in which R^1 and R^2 both represent oxygen atoms are, as already described, valuable intermediates for the synthesis of the active compounds. The inhibitory activities of certain of the compounds of the invention, in terms of the concentration in ng/ml required to inhibit colesterol biosynthesis by 50% [measured by the method described in the Journal of Biological Chemistry, 234, 2835 (1959)], are as follows (for comparison, the value for ML-236B lactone is also given): […]

Compound | concentration required to inhibit colesterol biosynthesis by 50%
CCC(C)C(=O)OC1CCC(=NO)C2=CC(=NO)C(C)C(CCC3CC(O)CC(=O)O3)C21 (single isomer, unassigned) [isomer a (Example 3), 3,4-Dihydro-4,6-bis(hydroxyimino)IsoML-236B lactone] | 4.5 ng/mL
CCC(C)C(=O)OC1CCC(=NO)C2=CC(=NO)C(C)C(CCC3CC(O)CC(=O)O3)C21 (single isomer, unassigned) [isomer b (Example 3), 3,4-Dihydro-4,6-bis(hydroxyimino)IsoML-236B lactone] | 4.3 ng/mL
CC1C(=O)C=C2C(=NO)CCC(O)C2C1CCC1CC(O)CC(=O)O1 (centres unmarked) [3,4-Dihydro-6-oxo-4-hydroxyiminoIsoML-236A lactone] | 0.9 ng/mL
CCC(C)C(=O)OC1CCC(=NO)C2=CC(=O)C(C)C(CCC3CC(O)CC(=O)O3)C21 (centres unmarked) [3,4-Dihydro-6-oxo-4-hydroxyiminoIsoML-236B lactone] | 0.3 ng/mL
CCC(C)C(=O)OC1CCC(=NOC)C2=CC(=O)C(C)C(CCC3CC(O)CC(=O)O3)C21 (centres unmarked) [3,4-Dihydro-6-oxo-4-methoxyiminoIsoML-236B lactone] | 0.6 ng/mL
CCC(C)C(=O)OC1CCC=C2C=CC(C)C(CCC3CC(O)CC(=O)O3)C21 (centres unmarked) [ML-236B lactone, reference compound] | 10 ng/mL
CCC(C)C(=O)OC1CCC(=NO)C2=CC(=O)C(C)C(CCC(O)CC(O)CC(=O)O)C21 (centres unmarked) [disodium 3,4-dihydro-6-oxo-4-oxidoiminoIsoML-236B carboxylat] [Disodium 3,4-dihydro-6-oxo-4-oxidoiminoIsoML-236B carboxylate] | 0.4 ng/mL
CCC(C)C(=O)OC1CCC(=NO)C2=CC(=O)C(C)C(CCC(O)CC(O)CC(=O)O)C21 (centres unmarked) [sodium 3,4-dihydro-6-oxo-4-hydroxyiminoIsoML-236B carboxylat] [Sodium 3,4-dihydro-6-oxo-4-hydroxyiminoIsoML-236B carboxylate] | 0.3 ng/mL
